From patent US20050244413A1, “Compositions and methods for treating cancer using cytotoxic CD44 antibody immunoconjugates and chemotherapeutic agents” (priority 2002, published 2005)
Where “and” joins values, the source holds several entries; their conditions need not be identical. Equal values may be shown once. Read-outs that look alike come from different tables or passages of the source.

Legend:
[1] = Tolerability in FaDu combination experiments (body weight); assay type: in vivo, mouse
Protocol: (§1) Tumor sizes and body weights were recorded 2-3 times per week. Tumor sizes were measured with a calliper (length and width) and the volume was calculated according to the following formula: volume (length)×(width)^2×([…]). The tolerability of the treatment was monitored by measuring mouse weight during the whole observation period. […] For calculation of the mean tumor volumes per group, the last values of tumor size for individual animals were carried forward in case that these animals had to be sacrificed due to large tumor burden before the whole group was terminated. In addition to the absolute tumor volume in mm^3, the relative tumor volumes (RTV) were calculated as follows: […]
(§2) In addition, for some experiments, the mean time for tumors to reach 8 times (T8T) their initial sizes were also calculated. The growth delay factor (GDF8) was then calculated accordingly. Percentages of mean relative tumor volumes of treated versus control groups (T/C) were calculated on the days indicated. For statistical evaluation of combination therapies exact Wilcoxon tests were used. Tolerability was assessed by monitoring body weight changes.

FaDuDD tumors [2] = experiment: BIWI 1 combination with cisplatin in nude mice xenografted with FaDuDD tumors; assay type: in vivo, mouse; conditions: cisplatin 4 mg/kg i.v. q7dx4
Protocol: (§3) The antibody solution was injected into the tail vein with an injection volume of 200 μl for a 25 g mouse. In the control groups without BIWI 1 treatment animals were injected i.v. with PBS. […] The solution was injected into the tail vein with an injection volume of 200 μl for a 25 g mouse. […] The solution was injected into the tail vein with an injection volume of 200 μl for a 25 g mouse.
(§4) Tumor sizes and body weights were recorded 2-3 times per week. Tumor sizes were measured with a calliper (length and width) and the volume was calculated according to the following formula: volume (length)×(width)^2×([…]). The tolerability of the treatment was monitored by measuring mouse weight during the whole observation period. […] For calculation of the mean tumor volumes per group, the last values of tumor size for individual animals were carried forward in case that these animals had to be sacrificed due to large tumor burden before the whole group was terminated. In addition to the absolute tumor volume in mm^3, the relative tumor volumes (RTV) were calculated as follows:
(§5) RTV=(tumor volume at day x)/(tumor volume at start of treatment)×100 For the evaluation of treatment efficacy the following parameters were calculated: • T/C (%)=(mean RTV of treated group)/(mean RTV of control group)×100 • T4T (tumor quadrupling time)=time until the mean RTV reaches 400% • GDF4 (growth delay factor)=T4T treated/T4T control.
as §2
A different set of experiments was done with cisplatin. In a pilot experiment, a dose of 4 mg/kg cisplatin administered i.v. four times in weekly intervals was determined to be non-curative in this model, and also represents the maximum tolerated dose in the mouse strain used. This dose of cisplatin was combined with BIWI 1 at the non-curative doses of 200 μg/kg DM1 and 300 Ag/kg DM1 already used in the previous experiment. […] In the latter combination group 2/8 complete tumor regressions could be observed. […] Treatment was well tolerated in all groups.

cells = conditions: free DM1, literature background; cited from earlier work
FaDuDD tumors [3] = experiment: BIWI 1 combination with docetaxel in nude mice xenografted with FaDuDD tumors; assay type: in vivo, mouse; conditions: docetaxel 3 mg/kg i.v. q7dx4
Protocol: as §3, §4, §5, §2
To assess the efficacy of BIWI 1 in combination with the taxane docetaxel (Taxotere), non-curative doses of both drugs were tested as single agents or in combination in nude mice xenografted with FADuDD tumors. In pilot experiments a dose of 3 mg/kg docetaxel (q7dx4) was determined to be non-curative in this model. BIWI 1 was used at the non-curative dose of 200 μg/kg DM 1 and at a somewhat higher dose (300 μg/kg DM1).
The effect was somewhat more pronounced in the two BIWI 1 monotherapy treatment groups with T/C 41-30% and GDF4: 2.8-4.4. Complete tumor regression could be observed in 1/8 cases with the higher BIWI 1 dose. […] Treatment was well tolerated in all groups, except for a slight unexplained weight loss (approx. −5%) in the docetaxel monotherapy group.

MDA-MB-453 tumors [4] = tested on: MDA-MB-453 tumors
Protocol: Experiments were performed using nude mice xenografted subcutaneously with the human breast carcinoma cell line MDA-MBA53. […] The efficacy of these combinations was compared to those of the respective monotherapies by i) analysing the tumor volumes over time and ii) by determining the time for tumors to reach a certain size (tumor growth delay).
The dilutions were prepared freshly for each application or stored at +4° C. during the whole treatment period. […] 200 μl of solutions with different concentrations were injected into the tail vein. Docetaxel (Taxotere®, Aventis, 10 mg/ml) was diluted in 0.9% NaCl. 200 μl of solutions with different concentrations were injected into the tail vein.
Briefly, 1×10^7 MDA-MB-453 cells (ATCC No. HTB-131) were injected into the mammary fat pad of female NMRI nu/nu mice. After reaching a volume of approximately 1000 mm^3 tumors were excised, cut into 4×4 mm pieces and passaged further subcutaneously. Tumor fragments were cryoconserved in 90% RPMI 1640/10% dimethylsulfoxide (slow freezing process down to −80° C., storage in liquid nitrogen). For further passaging, frozen tumor fragments were thawed, washed 3 times in PBS and implanted subcutaneously into the right and left flanks of a 4-5 female NMRI nu/nu mice. Tumors of these mice were then used to prepare the animals for a therapy experiment. Tumors were excised with a size of approximately 10 mm in diameter, cut into 2×2 mm pieces and implanted subcutaneously into the right flank of 6-8 week old female NMRI nu/nu mice. Approximately twice as many animals as needed for the experiment were prepared. When tumors reached a size of 5-10 mm in diameter (10-14 days after implantation), animals were randomised and treatments were started. Animals were obtained from Harlan (Germany) or M&B (Denmark). Tumor sizes and body weights were recorded as described in Section 2.7.

MDA-MB-453 tumors [5] = experiment: BIWI 1 combination with doxorubicin in nude mice xenografted with MDA-MB-453 tumors; assay type: in vivo, mouse; conditions: doxorubicin 6 mg/kg i.v. q7dx4
Protocol: Similar experiments as outlined under Section 2.6 were undertaken in a human breast carcinoma xenograft model. Experiments were performed using nude mice xenografted subcutaneously with the human breast carcinoma cell line MDA-MBA53. […] The efficacy of these combinations was compared to those of the respective monotherapies by i) analysing the tumor volumes over time and ii) by determining the time for tumors to reach a certain size (tumor growth delay).
The dilutions were prepared freshly for each application or stored at +4° C. during the whole treatment period. […] Doxorubicin (Doxorubicin “Ebewe”®, 2 mg/ml) was diluted in PBS. 200 μl of solutions with different concentrations were injected into the tail vein. Docetaxel (Taxotere®, Aventis, 10 mg/ml) was diluted in 0.9% NaCl. 200 μl of solutions with different concentrations were injected into the tail vein.
The xenograft model was handled slightly different as outlined under Section 2.1. Briefly, 1×10^7 MDA-MB-453 cells (ATCC No. HTB-131) were injected into the mammary fat pad of female NMRI nu/nu mice. After reaching a volume of approximately 1000 mm^3 tumors were excised, cut into 4×4 mm pieces and passaged further subcutaneously. Tumor fragments were cryoconserved in 90% RPMI 1640/10% dimethylsulfoxide (slow freezing process down to −80° C., storage in liquid nitrogen). For further passaging, frozen tumor fragments were thawed, washed 3 times in PBS and implanted subcutaneously into the right and left flanks of a 4-5 female NMRI nu/nu mice. Tumors of these mice were then used to prepare the animals for a therapy experiment. Tumors were excised with a size of approximately 10 mm in diameter, cut into 2×2 mm pieces and implanted subcutaneously into the right flank of 6-8 week old female NMRI nu/nu mice. Approximately twice as many animals as needed for the experiment were prepared. When tumors reached a size of 5-10 mm in diameter (10-14 days after implantation), animals were randomised and treatments were started. Animals were obtained from Harlan (Germany) or M&B (Denmark). Tumor sizes and body weights were recorded as described in Section 2.7.

[6] = Tolerability in MDA-MB-453 combination experiments (body weight); assay type: in vivo, mouse; conditions: doxorubicin 6 mg/kg monotherapy group; combination group with BIWI 1 75 μg/kg DM1; 6 animals per group
Protocol: as §1, §2

FaDu tumors [7] = experiment: BIWI 1 combination therapy with paclitaxel in the FaDu xenograft model; assay type: in vivo, mouse; conditions: or both
Protocol: (§6) In vivo anti-tumor efficacy of BIWI 1 was tested in three nude mouse xenograft models applying antigen-positive human tumors: A431 (ATCC # CRL 1555; epidermoid carcinoma of the vulva), FaDu (ATCC # HTB 43; squamous cell carcinoma of the pharynx), and MDA-MB 453 (ATCC # HTB-131; breast carcinoma). The cells were received from ATCC and cultured in RPMI1640 medium containing 10% fetal calf serum and supplements. 1×10^6 tumors cells were transplanted subcutaneously into the right flank of 6 week old female NMRI-nu/nu mice. Tumor growth was monitored by measuring tumor size. A tumor response was rated as complete response when the tumor completely disappeared at any time after start of treatment. The response was rated as partial response when the tumor volume decreased after treatment but thereafter started regrowing. The tolerability of the treatment was monitored by measuring mouse weight during the observation period.
Mice were randomised into the following treatment groups (treatment/initial mean tumor volume/tumor volume range/number of mice): • Group 1: Control (PBS)/197 mm^3/65-402 mm^3/8 mice • Group 2: Paclitaxel/182 mm^3 /65%-302 mm^3/8 mice • Group 3: BIWI 1/208 mm^3 /65-382 mm^3/8 mice • Group 4: BIWI 1+paclitaxel/159 mm^3 /79-335 mm^3 /7 mice
Treatment consisted either of five i.v. injections of BIWI 1 (7 mg/kg corresponding to 100 μg/kg DM1) at day 1, 3, 5, 8, 10, or of six i.p. injections of paclitaxel (10 mg/kg) at day 2, 4, 6, 9, 11, 13, respectively, or a combination thereof. Control animals were treated with PBS.
One tumor completely dissappeared during treatment and the animal remained tumor free until the end of the observation period.

[8] = tested on: breast carcinoma xenografts; experiment: BIWI 1 (five daily doses) combination with paclitaxel in human breast carcinoma xenograft model; assay type: in vivo, mouse
Protocol: BIWI was given i.v. into the tail vein at doses of 50 μg DM1/kg/day or 100 μg DM1/kg/day for five consecutive days. Paclitaxel (Taxol®) was given i.v. at 20 or 10 mg/kg, doxorubicin (Adriamycin®) at 6 or 4 mg/kg only on the first day of the treatment period, in each case 4 hours after BIWI 1 treatment. In mice bearing breast carcinoma xenografts with a volume of approximately 100 mm3.

FaDu tumors [9] = experiment: BIWI 1 monotherapy in FaDu xenografted nude mice; assay type: in vivo, mouse; conditions: 21 mg/kg/d control antibody i.v., five consecutive days
Protocol: as §6
Mice were randomised into the following treatment groups (treatment/initial mean tumor volume/tumor volume range/number of mice): • Group 1: Control (PBS)/142±82 mm^3/34-268 mm^3 /8 mice. • Group 2: BIWA 4 (21 mg/kg/d)/134±86 mm^3/42-268 mm^3/6 mice. • Group 3: BIWI 1 (2.1 mg/kg/d) 149±96 mm^3/50-268 mm^3/6 mice. • Group 4: BIWI 1 (7 mg/kg/d)/132±97 mm^3 42-268 mm^3/6 mice. • Group 5: BIWI 1 (21 mg/kg/d)/129±74 mm^3/50-231 mm^3/6 mice.
Groups of 6 mice were treated with 2.1 mg/kg/d BIWI 1, 7 mg/kg/d BIWI 1, 21 mg/kg/d BIWI 1, and 21 mg/kg/d control antibody, respectively. Treatment consisted of i.v. injections of BIWI 1 given on five consecutive days, starting at day 1. […] The remaining 2 tumors grew similar to untreated control tumors.

A431 tumors = experiment: BIWI 1 monotherapy in A431 xenografted nude mice; assay type: in vivo, mouse; conditions: 21 mg/kg/d control antibody i.v., five consecutive days
Protocol: as §6
Mice were randomised into the following treatment groups (treatment/initial mean tumor volume/tumor volume range/number of mice): • Group 1: Control (PBS)/185±217 mm^3/19-424 mm^3/5 mice. • Group 2: BIWA 4 (21 mg/kg/d)/133±115 mm^3/42-302 mm^3/5 mice. • Group 3: BIWI 1 (2.1 mg/kg/d)/107±63 mm^3/42-205 mm^3′/5 mice. • Group 4: BIWI 1 (7 mg/kg/d)/132±73 mm^3/42-205 mm^3/5 mice. • Group 5: BIWI 1 (21 mg/kg/d)/107±[…]/42-205 mm^3/5 mice.
Groups of 5 mice were treated with 2.1 mg/kg/d BIWI 1, 7 mg/kg/d BIWI 1, 21 mg/kg/d BIWI 1, and 21 mg/kg/d control antibody, respectively. Treatment consisted of i.v. injections of BIWI 1 given on five consecutive days, starting at day 1.

[10] = tested on: antigen-positive FaDu cells; experiment: In vitro binding to FaDu cells (FACS); conditions: 1 hour on ice, FITC-labeled anti-human IgG, read-out: apparent KD
Protocol: The binding of BIWA 4 antibody and BIWI 1 conjugate to antigen-positive FaDu cells was determined. Cells ([…]) were incubated in 96-well plates with varying concentrations of antibody or conjugate on ice for 1 hour. The test article was washed from the plate and FITC-labeled anti-human IgG was added and the incubation on ice was continued in the dark for 1 hour. After washing, the cells were fixed with 1% paraformaldehyde and analyzed on a fluorescence activated cell sorter (FACS).

[11] = BIWI 1 7 mg/kg i.v. x5, paclitaxel 10 mg/kg i.p. x6

Molecule: N.N.[Cl][Pt][Cl] [Cisplatin, reference compound]
- maximum tolerated dose in the mouse strain used ([1]; cisplatin i.v. four times in weekly intervals, pilot experiment): 4 mg/kg
- GDF4 (FaDuDD tumors [2]): 1.1
- T4T (FaDuDD tumors [2]): 11.3 days
- T/C (d 19) (FaDuDD tumors [2]): 100%

Molecule: COc1cc2cc(c1Cl)N(C)C(=O)C[C@H](OC(=O)[C@H](C)N(C)C(=O)CCS)[C@]1(C)O[C@H]1[C@H](C)[C@@H]1C[C@@](O)(NC(=O)O1)[C@H](OC)/C=C/C=C(\C)C2 [DM1, N^2′-deacetyl-N^2′-(3-mercapto-1-oxopropyl)-Maytansine]
- concentration toxic to cells in vitro (cells): about 10^−10 M

Molecule: CC(=O)O[C@@]12CO[C@@H]1C[C@H](O)[C@@]1(C)C(=O)[C@H](O)C3=C(C)[C@@H](OC(=O)[C@H](O)[C@@H](NC(=O)OC(C)(C)C)c4ccccc4)C[C@@](O)([C@@H](OC(=O)c4ccccc4)[C@H]21)C3(C)C [Docetaxel]
- GDF4 (FaDuDD tumors [3]): 1.9
- T4T (FaDuDD tumors [3]): 13.5 days
- T/C (d 16) (FaDuDD tumors [3]): 56%
- GDF4 (MDA-MB-453 tumors [4]; docetaxel 3 mg/kg i.v. q7dx4): 0.8
- T4T (MDA-MB-453 tumors [4]; docetaxel 3 mg/kg i.v. q7dx4): 9.0 days
- T/C (d 16) (MDA-MB-453 tumors [4]; docetaxel 3 mg/kg i.v. q7dx4): 102%
- GDF4 (MDA-MB-453 tumors [4]; docetaxel 6 mg/kg i.v. q7dx4): 1.3
- T4T (MDA-MB-453 tumors [4]; docetaxel 6 mg/kg i.v. q7dx4): 14 days and 13.9 days
- T/C (d 16) (MDA-MB-453 tumors [4]; docetaxel 6 mg/kg i.v. q7dx4): 71%
- weight loss ([1]; docetaxel monotherapy group 3 mg/kg q7dx4, FaDuDD xenografted mice): approx. −5%

Molecule: COc1cccc2c1C(=O)c1c(O)c3c(c(O)c1C2=O)C[C@@](O)(C(=O)CO)C[C@@H]3O[C@H]1C[C@H](N)[C@H](O)[C@H](C)O1 [Doxorubicin, reference compound]
- GDF4 (MDA-MB-453 tumors [5]): 1.0
- T/C (d13) (MDA-MB-453 tumors [5]): 66%
- animals with transient weight loss of more than 12% [6]: two

Molecule: CC(=O)O[C@H]1C(=O)[C@@]2(C)[C@H]([C@H](OC(=O)c3ccccc3)[C@]3(O)C[C@H](OC(=O)[C@H](O)[C@@H](NC(=O)c4ccccc4)c4ccccc4)C(C)=C1C3(C)C)[C@]1(OC(C)=O)CO[C@@H]1C[C@@H]2O [Paclitaxel, reference compound]
- Initial Tumor Doubling Time (FaDu tumors [7]; BIWI 1 7 mg/kg i.v. day 1,3,5,8,10, paclitaxel 10 mg/kg i.p. day 2,4,6,9,11,13): 7 days
- Complete Regression (FaDu tumors [7]; [11]): 0/8
- Growth Delay Factor (FaDu tumors [7]; [11]): 0.75
- T/C (median relative tumor volumes of treated versus control groups) ([8]; paclitaxel monotherapy 10 mg/kg i.v. on first day): 50%
- T/C (median relative tumor volumes of treated versus control groups) ([8]; paclitaxel monotherapy 20 mg/kg i.v. on first day): 13%

Molecule: BIWA 4
- anti-tumor effect (FaDu tumors [9]): no anti-tumor effect
- tumor volume doubling time (FaDu tumors [9]): approximately 5 days
- anti-tumor effect (A431 tumors): no anti-tumor effect
- tumor volume doubling time (A431 tumors): approximately 5 days
- Kd [10]: 1 nM
